Experimental data taken from PMC6320956, “O-Aminoalkyl-O-Trimethyl-2,3-Dehydrosilybins: Synthesis and In Vitro Effects Towards Prostate Cancer Cells” (Molecules, 2018).

Tests used:
Type in all cases: cell-based, human
PC-3 cells = experiment: WST-1 cell proliferation assay, PC-3; conditions: for IC50: Homo sapiens, PC-3, 72 h, WST-1, three days of exposure, mean ± SD, n = 3; for IC50 (Silibinin)/IC50(Derivative) PC-3: fold potency relative to silibinin
Protocol: (§1) The in vitro antiproliferative activities of six 7-O-substituted and 26 3-O-substituted silybin derivatives were evaluated using the WST-1 cell proliferation assay, according to the procedure as described in the Experimental Section in both androgen-sensitive (LNCaP) and androgen-insensitive (PC-3 and DU145) human prostate cancer cell lines. Silibinin and docetaxel were used as a positive control for comparison in the parallel experiments and the IC50 values calculated from the dose-response curves are summarized in Table 1. […] A three-carbon linker in 11 and 29, as well as a five-carbon linker in 31, 37 and 40, are beneficial to the potency.
(§2) All cell lines were initially purchased from American Type Culture Collection (ATCC^TM) (Manassas, VA, USA). The PC-3 and LNCaP prostate cancer cell lines were routinely cultured in RPIM-1640 medium supplemented with 10% FBS and 1% penicillin/streptomycin. The DU145 prostate cancer cells were routinely cultured in Eagle’s Minimum Essential Medium (EMEM) supplemented with 10% FBS and 1% penicillin/streptomycin. Cultures were maintained in a high humidity environment supplemented with 5% carbon dioxide at a temperature of 37 °C.
(§3) PC-3, DU145, or LNCaP cells were plated in 96-well plates at a density of 3,200 per well in 200 µL of culture medium. The cells were then separately treated with silibinin, or synthesized silibinin derivatives, at five different doses for three days, while equal treatment volumes of DMSO (0.25%) were used as the vehicle control. The cells were cultured in a CO2 incubator at 37 °C for three days. A total of 10 µL of the premixed WST-1 cell proliferation reagent (Clontech) was added to each well. After mixing gently for one min on an orbital shaker, the cells were incubated for an additional 3 h at 37 °C. To ensure a homogeneous distribution of color, it is important to mix gently on an orbital shaker for one min. The absorbance of each well was measured using a microplate reader (Synergy HT, BioTek, Winooski, VT, USA) at a wavelength of 430 nm. […] For calculating the IC50 values, a linear proliferative inhibition was made based on at least five dosages for each compound.

DU145 cells = experiment: WST-1 cell proliferation assay, DU145; conditions: for IC50: Homo sapiens, DU-145, 72 h, WST-1, three days of exposure, mean ± SD, n = 3; for IC50 (Silibinin)/IC50(Derivative) DU145: fold potency relative to silibinin
Protocol: as §1, §2, §3

LNCaP cells = experiment: WST-1 cell proliferation assay, LNCaP; conditions: for IC50: Homo sapiens, LNCaP, 72 h, WST-1, three days of exposure, mean ± SD, n = 3; for IC50 (Silibinin)/IC50(Derivative) LNCaP: fold potency relative to silibinin
Protocol: as §1, §2, §3

Q: Which IC50 (PC-3 cells) does the source give for `CCCN(CCC)CCCCOc1c(-c2ccc3c(c2)OC(c2ccc(OC)c(OC)c2)C(CO)O3)oc2cc(OC)cc(OC)c2c1=O` (stereo not drawn) [Compound 27] here?
A: The IC50 was 3.77 ± 0.41 µM.

Q: What about the “IC50 (Silibinin)/IC50(Derivative) PC-3” value (PC-3 cells) of the same compound?
A: The value was 19.

Q: And the IC50 (DU145 cells)?
A: The IC50 was 5.39 ± 0.53 µM.

Q: What about the “IC50 (Silibinin)/IC50(Derivative) DU145” value (DU145 cells) of the same compound?
A: Its value is 17.

Q: And the IC50 (LNCaP cells)?
A: Its IC50 is 4.02 ± 1.55 µM.

Q: And the “IC50 (Silibinin)/IC50(Derivative) LNCaP” value (LNCaP cells)?
A: The value was 11.

Q: Which results are given for `CCCN(CCC)CCCCCOc1c(-c2ccc3c(c2)OC(c2ccc(OC)c(OC)c2)C(CO)O3)oc2cc(OC)cc(OC)c2c1=O` (stereo not drawn) [Compound 28]?
A: IC50 (PC-3 cells): 3.3 ± 0.86 µM; IC50 (Silibinin)/IC50(Derivative) PC-3 (PC-3 cells): 22; IC50 (DU145 cells): 5.78 ± 1.36 µM; IC50 (Silibinin)/IC50(Derivative) DU145 (DU145 cells): 16; IC50 (LNCaP cells): 2.7 ± 0.47 µM; IC50 (Silibinin)/IC50(Derivative) LNCaP (LNCaP cells): 16

Q: For `CCCCN(CCCC)CCCCOc1c(-c2ccc3c(c2)OC(c2ccc(OC)c(OC)c2)C(CO)O3)oc2cc(OC)cc(OC)c2c1=O` (stereo not drawn) [Compound 30], which IC50 (PC-3 cells) is on record?
A: The IC50 was 3.77 ± 0.41 µM.

Q: What about the “IC50 (Silibinin)/IC50(Derivative) PC-3” value (PC-3 cells) of the same compound?
A: Its value is 19.

Q: What about the IC50 (DU145 cells) of the same compound?
A: Its IC50 is 3.07 ± 0.51 µM.

Q: And the “IC50 (Silibinin)/IC50(Derivative) DU145” value (DU145 cells)?
A: Its value is 30.

Q: What about the IC50 (LNCaP cells) of the same compound?
A: Its IC50 is 3.84 ± 0.51 µM.

Q: What about the “IC50 (Silibinin)/IC50(Derivative) LNCaP” value (LNCaP cells) of the same compound?
A: The value was 11.

Q: With `COc1cc(OC)c2c(=O)c(OCCCN3CCCC3)c(-c3ccc4c(c3)OC(c3ccc(OC)c(OC)c3)C(CO)O4)oc2c1` (stereo not drawn) [Compound 32] as the compound, how does the IC50 (PC-3 cells) read?
A: Its IC50 is 2.86 ± 0.79 µM.

Q: What about the “IC50 (Silibinin)/IC50(Derivative) PC-3” value (PC-3 cells) of the same compound?
A: Its value is 25.

Q: What about the IC50 (DU145 cells) of the same compound?
A: Its IC50 is 14.1 ± 2.79 µM.

Q: And the “IC50 (Silibinin)/IC50(Derivative) DU145” value (DU145 cells)?
A: The value was 7.

Q: And the IC50 (LNCaP cells)?
A: The IC50 was 5.89 ± 0.3 µM.

Q: And the “IC50 (Silibinin)/IC50(Derivative) LNCaP” value (LNCaP cells)?
A: Its value is 7.

Q: What does the source list for `COc1cc(OC)c2c(=O)c(OCCCCN3CCCC3)c(-c3ccc4c(c3)OC(c3ccc(OC)c(OC)c3)C(CO)O4)oc2c1` (stereo not drawn) [Compound 33]?
A: IC50 (PC-3 cells): 7.49 ± 1.98 µM; IC50 (Silibinin)/IC50(Derivative) PC-3 (PC-3 cells): 10; IC50 (DU145 cells): 19.8 ± 2.38 µM; IC50 (Silibinin)/IC50(Derivative) DU145 (DU145 cells): 5; IC50 (LNCaP cells): 8.06 ± 1.44 µM; IC50 (Silibinin)/IC50(Derivative) LNCaP (LNCaP cells): 5

Q: Which IC50 (PC-3 cells) does the source give for `COc1cc(OC)c2c(=O)c(OCCCCCN3CCCC3)c(-c3ccc4c(c3)OC(c3ccc(OC)c(OC)c3)C(CO)O4)oc2c1` (stereo not drawn) [Compound 34] here?
A: The IC50 was 2.95 ± 0.76 µM.

Q: What about the “IC50 (Silibinin)/IC50(Derivative) PC-3” value (PC-3 cells) of the same compound?
A: The value was 25.

Q: What about the IC50 (DU145 cells) of the same compound?
A: The IC50 was 5.9 ± 1.3 µM.

Q: What about the “IC50 (Silibinin)/IC50(Derivative) DU145” value (DU145 cells) of the same compound?
A: The value was 16.

Q: What about the IC50 (LNCaP cells) of the same compound?
A: Its IC50 is 3.92 ± 1.67 µM.

Q: What about the “IC50 (Silibinin)/IC50(Derivative) LNCaP” value (LNCaP cells) of the same compound?
A: Its value is 11.

Q: Which IC50 (PC-3 cells) does the source give for `COc1cc(OC)c2c(=O)c(OCCCN3CCCCC3)c(-c3ccc4c(c3)OC(c3ccc(OC)c(OC)c3)C(CO)O4)oc2c1` (stereo not drawn) [Compound 35] here?
A: The IC50 was 2.37 ± 0.7 µM.

Q: And the “IC50 (Silibinin)/IC50(Derivative) PC-3” value (PC-3 cells)?
A: Its value is 31.

Q: And the IC50 (DU145 cells)?
A: The IC50 was 7.26 ± 1.12 µM.

Q: And the “IC50 (Silibinin)/IC50(Derivative) DU145” value (DU145 cells)?
A: Its value is 13.

Q: What about the IC50 (LNCaP cells) of the same compound?
A: Its IC50 is 2.28 ± 0.42 µM.

Q: And the “IC50 (Silibinin)/IC50(Derivative) LNCaP” value (LNCaP cells)?
A: Its value is 19.

Q: Which results are given for `COc1cc(OC)c2c(=O)c(OCCCCN3CCCCC3)c(-c3ccc4c(c3)OC(c3ccc(OC)c(OC)c3)C(CO)O4)oc2c1` (stereo not drawn) [Compound 36]?
A: IC50 (PC-3 cells): 24.1 ± 10.6 µM; IC50 (Silibinin)/IC50(Derivative) PC-3 (PC-3 cells): 3; IC50 (DU145 cells): 67 ± 13.7 µM; IC50 (Silibinin)/IC50(Derivative) DU145 (DU145 cells): 1; IC50 (LNCaP cells): 27.3 ± 5.42 µM; IC50 (Silibinin)/IC50(Derivative) LNCaP (LNCaP cells): 2

Q: Which results are given for `COc1cc(OC)c2c(=O)c(OCCCN3CCOCC3)c(-c3ccc4c(c3)OC(c3ccc(OC)c(OC)c3)C(CO)O4)oc2c1` (stereo not drawn) [Compound 38]?
A: IC50 (PC-3 cells): 2.94 ± 0.13 µM; IC50 (Silibinin)/IC50(Derivative) PC-3 (PC-3 cells): 25; IC50 (DU145 cells): 10.6 ± 0.63 µM; IC50 (Silibinin)/IC50(Derivative) DU145 (DU145 cells): 9; IC50 (LNCaP cells): 1.74 ± 0.97 µM; IC50 (Silibinin)/IC50(Derivative) LNCaP (LNCaP cells): 25

Q: With `COc1cc(OC)c2c(=O)c(OCCCCN3CCOCC3)c(-c3ccc4c(c3)OC(c3ccc(OC)c(OC)c3)C(CO)O4)oc2c1` (stereo not drawn) [Compound 39] as the compound, how does the IC50 (PC-3 cells) read?
A: Its IC50 is 3.49 ± 0.24 µM.

Q: What about the “IC50 (Silibinin)/IC50(Derivative) PC-3” value (PC-3 cells) of the same compound?
A: Its value is 21.

Q: What about the IC50 (DU145 cells) of the same compound?
A: Its IC50 is 6.36 ± 0.37 µM.

Q: And the “IC50 (Silibinin)/IC50(Derivative) DU145” value (DU145 cells)?
A: Its value is 15.

Q: What about the IC50 (LNCaP cells) of the same compound?
A: Its IC50 is 2.84 ± 0.22 µM.

Q: What about the “IC50 (Silibinin)/IC50(Derivative) LNCaP” value (LNCaP cells) of the same compound?
A: The value was 15.

Q: How did the IC50 (PC-3 cells) turn out when `COc1cc(OC)c2c(=O)c(OCCCN3CCNCC3)c(-c3ccc4c(c3)OC(c3ccc(OC)c(OC)c3)C(CO)O4)oc2c1` (stereo not drawn) [Compound 41] was run?
A: The IC50 was 9.98 ± 4.94 µM.

Q: And the “IC50 (Silibinin)/IC50(Derivative) PC-3” value (PC-3 cells)?
A: Its value is 7.

Q: And the IC50 (DU145 cells)?
A: The IC50 was > 50 µM.

Q: What about the “IC50 (Silibinin)/IC50(Derivative) DU145” value (DU145 cells) of the same compound?
A: The value was <2.

Q: And the IC50 (LNCaP cells)?
A: The IC50 was 11.4 ± 5.91 µM.

Q: What about the “IC50 (Silibinin)/IC50(Derivative) LNCaP” value (LNCaP cells) of the same compound?
A: Its value is 4.

Q: Which IC50 (PC-3 cells) does the source give for `COc1cc(OC)c2c(=O)c(OCCCCN3CCNCC3)c(-c3ccc4c(c3)OC(c3ccc(OC)c(OC)c3)C(CO)O4)oc2c1` (stereo not drawn) [Compound 42] here?
A: Its IC50 is 5.3 ± 0.66 µM.

Q: And the “IC50 (Silibinin)/IC50(Derivative) PC-3” value (PC-3 cells)?
A: Its value is 14.

Q: What about the IC50 (DU145 cells) of the same compound?
A: Its IC50 is 6.85 ± 0.77 µM.

Q: And the “IC50 (Silibinin)/IC50(Derivative) DU145” value (DU145 cells)?
A: The value was 14.

Q: And the IC50 (LNCaP cells)?
A: The IC50 was 4.58 ± 1.77 µM.

Q: And the “IC50 (Silibinin)/IC50(Derivative) LNCaP” value (LNCaP cells)?
A: The value was 10.

Q: Which results are given for `COc1cc(OC)c2c(=O)c(OCCCCCN3CCNCC3)c(-c3ccc4c(c3)OC(c3ccc(OC)c(OC)c3)C(CO)O4)oc2c1` (stereo not drawn) [Compound 43]?
A: IC50 (PC-3 cells): 7.87 ± 1.47 µM; IC50 (Silibinin)/IC50(Derivative) PC-3 (PC-3 cells): 9; IC50 (DU145 cells): 48.1 ± 16.3 µM; IC50 (Silibinin)/IC50(Derivative) DU145 (DU145 cells): 2; IC50 (LNCaP cells): 14.4 ± 7.49 µM; IC50 (Silibinin)/IC50(Derivative) LNCaP (LNCaP cells): 3
